Earlier results in US12090168B2, “Glucose glycans for treating urea cycle disorders” (DSM Nutritional Products, LLC, priority 2017, dated 2024).

Details: administered in combination with lactulose

For CO[C@H]1/C=C/O[C@@]2(C)Oc3c(C)c(O)c4c(O)c(c5c(nc6cc(C)ccn65)c4c3C2=O)NC(=O)/C(C)=C\C=C\[C@H](C)[C@H](O)[C@@H](C)[C@@H](O)[C@@H](C)[C@H](OC(C)=O)[C@@H]1C [rifaximin], the “reduction of episodes of OHE” value is given as “approximately 50%”.
